From patent US20180051301A1, “INDUCTION OF PACEMAKER-LIKE CELLS FROM CARDIOMYOCYTES” (WASHINGTON UNIVERSITY, priority 2015, published 2018)

Tests used:
Assay type in all cases: cell-based
[1] = system: human ventricular slices (α1-adrenergic receptor stimulation); test: Chronic drug model: acute versus chronic phenylephrine in cultured human ventricular slices, optical mapping; conditions: for effect on AP duration (APD): 1 Hz (60 BPM) pacing
Protocol: Non-failing donor hearts that were rejected for transplantation were cardioplegically arrested and cooled in the operating room following the same procedure accepted for heart transplantation. Cardiac tissue that was promptly delivered to the research laboratory, where it was sliced tangential to the endocardium using a high precision (1 μm) vibrating microtome, transferred to a custom-designed incubation apparatus, and cultured at a liquid-air interface in 6-well culture plates using Transwell inserts. Slices were cultured in M-199 supplemented with 1×ITS (Insulin, Transferrin, Selenium), 10 mM 2,3-butanedione monoxime, and 2% penicillin-streptomycin in a 37° C. incubator with humidified air with 5% CO2. Culture medium was changed daily. Vital tissue slices from adult myocardium prepared in this manner have previously been cultured for up to 28 days with high cellular viability and maintenance of expression of the major ion channels and action potential characteristics.
Slices were cultured in medium 199 supplemented with 2% penicillin-streptomycin, 1×ITS (Insulin, Transferrin, Selenium) liquid media supplement, and 10 mM 2,3-butanedione monoxime. Slices were individually washed in sterile PBS solution 6 times before placing in culture. Sterile forceps were used to handle slices at all time. […]
After a 24 hour culture period, slices' electrophysiology was measured with optical mapping to examine potential functional changes occurred during culture. […]
Utilizing cultured slices and adult dosage of phenylephrine, a widely used selective α1-adrenergic receptor agonist, a model to study chronic drug effects in human cardiac slices was developed. Slice electrophysiology was first acutely measured using optical mapping after application of 3 μM phenylephrine. […]
Slices were cultured in a tissue incubator for 24 hours. Control cultured slices were measured before and after phenylephrine application similar to acute slices, slices cultured in drug media were measured separately. […] Only transverse conduction velocity could be measured accurately due to the small size of the tissue.
(§1) Activation map was plotted via calculating activation time points at 50% of action potential upstroke amplitude. Action potential and calcium transient duration was calculated at 80% repolarization/relaxation. When slices were field-paced, conduction velocity could not be quantified via traditional longitudinal and transverse direction. During point pacing conduction velocity was calculated using a semi-automated Matlab function ORCA. Effective refractory period was measured using S1-S1 pacing protocol until 1:1 capture was lost. Action potential and calcium transient were recorded at cycle lengths from 2000 ms to 200 ms.

[2] = system: Donor left ventricular slices; test: Optical mapping of acute drug response in donor human left ventricular slices; conditions: donor left ventricular slices paced at 1 Hz; β-adrenergic stimulation with isoproterenol (100 nM); ±S.D.; baseline 0.67±0.03
Protocol: After arrival, an approximately one-inch cube of left ventricular tissue or right atrial tissue was cut in cardioplegic solution. Left ventricular tissue was taken from a region close to left anterior descending artery and circumflex artery. Atrial tissue was taken from crista terminalis below sinoatrial node region. Premade 4% agarose gel cooled at 4° C. was glued on to the tissue holder of a high precision vibrating microtome (7000 smz-2, Campden Instruments Ltd. UK). The tissue block was then mounted endocardium up on the agarose. […] Slices were cut tangential to the endocardium. […]
(§2) Ventricular slices were electrophysiologically studied with optical mapping technique. […] Transmembrane potential (Vm) was measured using di4-ANEEPS and RH237 (Life Technologies). Intracellular calcium was measured using Rhod-2AM (Life Technologies). […]
as §1, with “Action potential and calcium transient were recorded at cycle lengths from 2000 ms to 200 ms.” left out

[3] = system: failing slices (left ventricular free wall of failing hearts); test: Optical mapping of acute drug response in failing human heart slices; conditions: isoproterenol, baseline 0.47±0.008
Protocol: Adult human hearts were procured either as failing human hearts from Barnes-Jewish Hospital or donor human hearts from Mid-America transplant services. Explanted hearts were cardioplegically arrested via high potassium solution (in mmol/L: NaCl 110, CaCl2 1.2, KCl 16, MgCl2 16, NaHCO3 10) and were cooled to approximately 4° C. in the operating room following aortic cross-clamp. Failing hearts were perfused through both coronaries, while donor hearts were perfused systemically prior to removal from body. The heart was maintained at this low temperature to preserve tissue during the 15-20 minute transportation time from the operating room to the research laboratory.
as §2
as §1, with “Effective refractory period was measured using S1-S1 pacing protocol until 1:1 capture was lost. Action potential and calcium transient were recorded at cycle lengths from 2000 ms to 200 ms.” left out

Row | SMILES | effect on AP restitution curve ([1]; acute (15 minutes) 3 μM, at baseline as well as after one day in culture) | effect on AP duration (APD) ([1]; acute treatment at baseline and after one day in culture) | effect on AP restitution curve ([1]; chronic (24 hours) 3 μM) | effect on AP duration (APD) ([1]; chronic treatment (24 hours)) | conduction velocity (CV) [2] [m/s] | conduction velocity (CV) [3] [m/s]
1 | CNC[C@H](O)c1cccc(O)c1 [phenylephrine] | shifted the AP restitution curve upwards significantly | APD lengthening | shifted the AP restitution curve downwards | APD shortening | – | –
2 | CC(C)NCC(O)c1ccc(O)c(O)c1 (stereo not drawn) [isoproterenol] | – | – | – | – | 0.84±0.03 | 0.54±0.006
